Oligonucleotides are written 5' to 3', each unit as a sugar letter and its base; * is a phosphorothioate linkage, no mark a phosphodiester; rarer units and linkages stand in square brackets, end groups in braces. Plain capitals give the bases only. e = 2'-O-(2-methoxyethyl) (MOE); l = locked nucleic acid (LNA); [5mC] = 5-methylcytosine

The record followed here is patent US20250243488A1, “METHODS OF MODULATING PROGRANULIN EXPRESSION USING ANTISENSE OLIGONUCLEOTIDES TARGETING REGULATORY RNAS” (Camp4 Therapeutics Corporation, priority 2022, published 2025).

The subject of the data set is mGrn mRNA. Description: mGrn mRNA qPCR in Neuro2a cells transfected with ASOs. The note with it: for mGRN mRNA FC: Table 14, 100 nM, 48 hours, normalized to sNTC3; for 40 nM FC (mGrn mRNA) / 80 nM FC (mGrn mRNA) / 160 nM FC (mGrn mRNA): transfection. Format: cell-based, mouse. The procedure: 57 ASOs targeting the Grn promoter (− strand) were screened in Neuro2a cells. Neuro2a cells were transfected with 100 nM of each of the ASOs listed in Table 14 and cells were harvested 48 hours later for Grn mRNA quantification using qPCR. Housekeeping genes for normalization were Gapdh and Ppia. Relative Grn mRNA levels were normalized to mRNA extracted from cells treated with sNTC3 (steric nontargeting control).
Next, 26 ASOs based on parent ASOs CO-3544 and CO-3595 were designed with different modifications and base walking. Neuro2a cells were transfected with either […] or 160 nM of each of the ASOs listed in Table 15, and cells were harvested 48 hours later for mGrn mRNA quantification using qPCR. As controls, cells were treated with sNTC3 or no ASO. Housekeeping genes for normalization were Gapdh and Ppia. Relative Grn mRNA levels were normalized to mRNA extracted from cells treated with sNTC3.
CO-3544 was modified to include PO/PS bonds and the efficacy in upregulating mGrn mRNA was determined.
Similarly, CO-3595 was modified to include varying PO/PS internucleotide bonds and the efficacy of these ASOs in upregulating mGrn mRNA was determined in Neuro2A cells.
(In general: Real-time PCR tracks product formation cycle by cycle.)

“CO-3599: ASO targeting the Grn promoter (− strand) (antisense eA*eT*eG*eA*eT*eG*e[5mC]*eA*e[5mC]*e[5mC]*eA*eG*eT*e[5mC]*eT*eT*eA*e[5mC]*eA*e[5mC])”: the “mGRN mRNA FC” value (Neuro2a) is on record as 1.0 FC.

On to “CO-3563: ASO targeting the Grn promoter (− strand) (antisense eG*e[5mC]*eA*eG*eA*e[5mC]*eA*eA*eT*e[5mC]*eT*e[5mC]*e[5mC]*e[5mC]*e[5mC]*eG*eG*e[5mC]*eT*eA)”, for which the “mGRN mRNA FC” value (Neuro2a) came out at 1.5 FC.

For the substance “CO-3576: ASO targeting the Grn promoter (− strand) (antisense eA*eT*eG*eT*eA*e[5mC]*eA*eA*eA*eA*eG*eT*e[5mC]*e[5mC]*e[5mC]*eG*eA*eT*e[5mC]*e[5mC])”, the “mGRN mRNA FC” value (Neuro2a) is listed as 1.2 FC.

Turning to “CO-5293: CO-3544 modified to include PO/PS bonds (antisense GTTCTCCCTAGCTGTGTAGT; 2'-MOE, mixed PS/PO, 5-methylcytosine; listed as RNA; modified_base 1..9: mod_base = OTHER; note = Phosphorothioate linkage; modified_base 17..20: mod_base = OTHER; modified_base 1..20: mod_base = OTHER; note = 2'-O-(2-methoxyethyl) ribonucleotide; modified_base 4)”, under “Table 15, Neuro2a”, the “40 nM FC (mGrn mRNA)” value turned out to be 1.1 FC, the “80 nM FC (mGrn mRNA)” value came to 1.0 FC and the “160 nM FC (mGrn mRNA)” value is 1.1 FC.

Take “CO-3581: ASO targeting the Grn promoter (− strand) (antisense e[5mC]*eG*e[5mC]*e[5mC]*e[5mC]*eT*eT*eG*eA*eA*e[5mC]*e[5mC]*eT*eT*eT*eA*eT*eT*eA*eG)”: the “mGRN mRNA FC” value (Neuro2a) is 1.1 FC.

Regarding “CO-3571: ASO targeting the Grn promoter (− strand) (antisense eG*e[5mC]*eT*eA*eT*eG*eT*eT*eG*eT*e[5mC]*eA*eT*eA*eT*eG*eA*eT*eT*e[5mC])”, the “mGRN mRNA FC” value (Neuro2a) was found to be 1.4 FC.

Take “CO-3572: ASO targeting the Grn promoter (− strand) (antisense eG*e[5mC]*e[5mC]*eG*e[5mC]*e[5mC]*eA*eG*eA*eA*e[5mC]*e[5mC]*e[5mC]*eA*eA*eA*e[5mC]*e[5mC]*eA*eG)”: the “mGRN mRNA FC” value (Neuro2a) is reported as 1.3 FC.

Regarding “CO-3559: ASO targeting the Grn promoter (− strand) (antisense eG*eT*eT*eG*eT*eA*eG*eA*eG*eA*e[5mC]*eA*e[5mC]*e[5mC]*eT*e[5mC]*e[5mC]*e[5mC]*e[5mC]*eG)”, the “mGRN mRNA FC” value (Neuro2a) was found to be 1.4 FC.

“CO-3555: ASO targeting the Grn promoter (− strand) (antisense e[5mC]*eT*e[5mC]*eT*eT*eG*eT*e[5mC]*e[5mC]*eG*eT*eA*e[5mC]*eT*eT*e[5mC]*e[5mC]*e[5mC]*eA*e[5mC])”: the “mGRN mRNA FC” value (Neuro2a) is on record as 1.5 FC.

For “CO-5294: CO-3544 modified to include PO/PS bonds (antisense eG*eT*eT*e[5mC]*eT*e[5mC]*e[5mC]*e[5mC]*eT*eA*eGe[5mC]eTeGeTeGeT*eA*eG*eT)”, under “Table 15, Neuro2a”, the “40 nM FC (mGrn mRNA)” value was determined as 1.1 FC, the “80 nM FC (mGrn mRNA)” value was found to be 1.1 FC and the “160 nM FC (mGrn mRNA)” value came out at 1.3 FC.

As for “CO-3575: ASO targeting the Grn promoter (− strand) (antisense eG*eT*eA*eA*eA*e[5mC]*eG*eA*e[5mC]*e[5mC]*eT*eT*eG*eA*eA*e[5mC]*eG*e[5mC]*eG*eT)”, the “mGRN mRNA FC” value (Neuro2a) turned out to be 1.2 FC.

Regarding “CO-3558: ASO targeting the Grn promoter (− strand) (antisense eT*e[5mC]*e[5mC]*e[5mC]*e[5mC]*e[5mC]*e[5mC]*e[5mC]*eA*eA*eT*eA*eA*eG*eA*eG*eG*e[5mC]*eT*eT)”, the “mGRN mRNA FC” value (Neuro2a) is given as 1.2 FC.

In the case of “CO-3560: ASO targeting the Grn promoter (− strand) (antisense eT*eG*eA*eT*eG*e[5mC]*eA*e[5mC]*eT*eA*eA*e[5mC]*eG*eA*eG*eG*eT*eT*eG*eT)”, the “mGRN mRNA FC” value (Neuro2a) worked out at 1.2 FC.

For the substance “CO-5296: CO-3544 modified to include PO/PS bonds (antisense eG*eT*eTe[5mC]eTe[5mC]e[5mC]e[5mC]eTeAeGe[5mC]eTeGeTeG*eT*eA*eG*eT)”, under “Table 15, Neuro2a”, the “40 nM FC (mGrn mRNA)” value was determined as 1.1 FC, the “80 nM FC (mGrn mRNA)” value turned out to be 1.1 FC and the “160 nM FC (mGrn mRNA)” value is 1.0 FC.

Consider “CO-5314: CO-3595 modified to include varying PO/PS internucleotide bonds (antisense l[5mC]*l[5mC]*eT*lG*lA*eA*l[5mC]*eT*lG*eT*lA*eT*lG*eG*l[5mC]*eT*lG*eA*l[5mC]*l[5mC])”, for which, where the note is “Table 16, Neuro2A”, the “40 nM FC (mGrn mRNA)” value is listed as 1.5 FC, the “80 nM FC (mGrn mRNA)” value was 1.7 FC and the “160 nM FC (mGrn mRNA)” value turned out to be 1.5 FC.

With “CO-4082: ASO based on parent ASOs CO-3544 and CO-3595, different modifications and base walking (antisense eG*eT*eT*e[5mC]*eT*l[5mC]*e[5mC]*e[5mC]*lT*eA*eG*l[5mC]*eT*eG*lT*eG*eT*eA*eG*eT)”, under “Table 15, Neuro2a”, the “40 nM FC (mGrn mRNA)” value is 1.4 FC, the “80 nM FC (mGrn mRNA)” value stood at 1.6 FC and the “160 nM FC (mGrn mRNA)” value came out at 1.4 FC.

Take “CO-5299: CO-3544 modified to include PO/PS bonds (antisense eG*eT*eTe[5mC]eTe[5mC]e[5mC]e[5mC]eTeA*eG*e[5mC]*eT*eGeT*eG*eT*eA*eG*eT)”: for the setting “Table 15, Neuro2a”, the “40 nM FC (mGrn mRNA)” value is 1.2 FC, the “80 nM FC (mGrn mRNA)” value was found to be 1.3 FC and the “160 nM FC (mGrn mRNA)” value stood at 1.5 FC.

Turning to “CO-3547: ASO targeting the Grn promoter (− strand) (antisense eA*eT*e[5mC]*eT*eG*eG*eA*eT*eT*eG*eG*e[5mC]*eT*e[5mC]*eA*e[5mC]*e[5mC]*eT*eT*eT)”, under “Neuro2a”, the “mGRN mRNA FC” value turned out to be 1.7 FC.

For the substance “CO-3548: ASO targeting the Grn promoter (− strand) (antisense e[5mC]*eA*e[5mC]*eT*eT*eT*eT*e[5mC]*e[5mC]*e[5mC]*e[5mC]*e[5mC]*eG*e[5mC]*eT*eG*e[5mC]*e[5mC]*eT*e[5mC])”, the “mGRN mRNA FC” value (Neuro2a) is 1.5 FC.

Regarding “CO-3593: ASO targeting the Grn promoter (− strand) (antisense e[5mC]*eA*eT*eA*eA*e[5mC]*eA*eA*eT*eT*e[5mC]*e[5mC]*eT*e[5mC]*eG*eA*eA*eG*eG*eT)”, for the setting “Neuro2a”, the “mGRN mRNA FC” value stood at 1.1 FC.

Take “CO-3573: ASO targeting the Grn promoter (− strand) (antisense eG*eT*e[5mC]*eT*e[5mC]*eA*eT*e[5mC]*eT*e[5mC]*eT*eG*e[5mC]*eA*eA*e[5mC]*eA*e[5mC]*eT*e[5mC])”: where the note is “Neuro2a”, the “mGRN mRNA FC” value was 1.4 FC.

Regarding “CO-5315: CO-3595 modified to include varying PO/PS internucleotide bonds (antisense l[5mC]*l[5mC]*eT*lG*eA*lA*e[5mC]*lT*eG*lT*eA*lT*eG*lG*e[5mC]*lT*lG*eA*l[5mC]*l[5mC])”, where the note is “Table 16, Neuro2A”, the “40 nM FC (mGrn mRNA)” value stood at 1.3 FC, the “80 nM FC (mGrn mRNA)” value came out at 1.4 FC and the “160 nM FC (mGrn mRNA)” value is listed as 1.6 FC.

As for “CO-3561: ASO targeting the Grn promoter (− strand) (antisense e[5mC]*e[5mC]*eT*e[5mC]*eT*eT*eG*eA*eA*eA*e[5mC]*eT*e[5mC]*e[5mC]*e[5mC]*e[5mC]*eT*eA*eGeG)”, under “Neuro2a”, the “mGRN mRNA FC” value stood at 1.3 FC.
